ChEMBL document CHEMBL3045530, “Synthesis, antimycobacterial, antiviral, antimicrobial activities, and QSAR studies of isonicotinic acid-1-(substituted phenyl)-ethylidene/cycloheptylidene hydrazides” (Med Chem Res, 2012)
Values after ≈ are worked out from the molar mass of the structure shown.

Tested on: Vesicular stomatitis virus
Assay: Antiviral activity against Vesicular stomatitis virus infected human HeLa cells assessed as inhibition of virus-induced cytopathicity by microscopy
Type: functional, organism-based
Details: not given
Compound `C/C(=N\NC(=O)c1ccncc1)c1ccc([N+](=O)[O-])cc1` has an EC50 of over 20 µg/mL. In the case of `C/C(=N\NC(=O)c1ccncc1)c1ccc(Cl)cc1`, the EC50 is reported as over 20 µg/mL. With `COc1ccc(OC)c(/C(C)=N/NC(=O)c2ccncc2)c1` the EC50 was over 100 µg/mL.

Tested on: Human herpesvirus 3 strain Oka vaccine
Assay: Antiviral activity against Human herpesvirus 3 strain Oka vaccine OKA 07-1 (Varicella zoster virus ) infected in human HEL cells assessed as inhibition of virus-induced cytopathicity
Type: functional, organism-based
Details: Human alphaherpesvirus 3, HEL
`C/C(=N\NC(=O)c1ccncc1)c1ccc([N+](=O)[O-])cc1` gave an EC50 of over 20 µg/mL. `C/C(=N\NC(=O)c1ccncc1)c1ccc(Cl)cc1` gave an EC50 of over 20 µg/mL. Compound `COc1ccc(OC)c(/C(C)=N/NC(=O)c2ccncc2)c1` has an EC50 of over 100 µg/mL.

Tested on: Human herpesvirus 5 strain AD169
Assay: Antiviral activity against Human herpesvirus 5 strain AD169 Davis infected human HEL cells assessed as inhibition of virus-induced cytopathicity by microscopy
Type: functional, organism-based
Details: Human betaherpesvirus 5, Davis
`C/C(=N\NC(=O)c1ccncc1)c1ccc([N+](=O)[O-])cc1` gave an EC50 of over 20 µg/mL. `C/C(=N\NC(=O)c1ccncc1)c1ccc(Cl)cc1` gave an EC50 of over 20 µg/mL. `COc1ccc(OC)c(/C(C)=N/NC(=O)c2ccncc2)c1` gave an EC50 of over 100 µg/mL.

Tested on: Respiratory syncytial virus
Assay: Antiviral activity against Respiratory syncytial virus infected human HeLa cells assessed as inhibition of virus-induced cytopathicity by microscopy
Type: functional, organism-based
Details: not given
With `C/C(=N\NC(=O)c1ccncc1)c1ccc([N+](=O)[O-])cc1` the EC50 was over 20 µg/mL. Compound `C/C(=N\NC(=O)c1ccncc1)c1ccc(Cl)cc1` has an EC50 of over 20 µg/mL. For `COc1ccc(OC)c(/C(C)=N/NC(=O)c2ccncc2)c1`, the EC50 was over 100 µg/mL.

Tested on: Human alphaherpesvirus 1
Assay: Antiviral activity against Human herpesvirus 1 strain KOS infected human HEL cells assessed as inhibition of virus-induced cytopathicity by microscopy by microscopy
Type: functional, organism-based
Details: Human alphaherpesvirus 1, KOS
With `C/C(=N\NC(=O)c1ccncc1)c1ccc([N+](=O)[O-])cc1` the EC50 was over 100 µg/mL. With `C/C(=N\NC(=O)c1ccncc1)c1ccc(Cl)cc1` the EC50 was over 20 µg/mL. For `COc1ccc(OC)c(/C(C)=N/NC(=O)c2ccncc2)c1`, the EC50 was over 100 µg/mL.

Tested on: Human alphaherpesvirus 1
Assay: Antiviral activity against TK(-) aciclovir-resistant Human herpesvirus 1 strain KOS infected in human HEL cells assessed as inhibition of virus-induced cytopathicity
Type: functional, organism-based
Details: Human alphaherpesvirus 1, KOS
`C/C(=N\NC(=O)c1ccncc1)c1ccc([N+](=O)[O-])cc1` gave an EC50 of over 100 µg/mL. For `C/C(=N\NC(=O)c1ccncc1)c1ccc(Cl)cc1`, the EC50 was over 20 µg/mL. In the case of `COc1ccc(OC)c(/C(C)=N/NC(=O)c2ccncc2)c1`, the EC50 is reported as over 100 µg/mL.

Tested on: Vaccinia virus
Assay: Antiviral activity against Vaccinia virus infected human HEL cells assessed as inhibition of virus-induced cytopathicity by microscopy
Type: functional, organism-based
Details: Orthopoxvirus vaccinia
Work on `C/C(=N\NC(=O)c1ccncc1)c1ccc([N+](=O)[O-])cc1` yielded an EC50 of over 100 µg/mL. Compound `C/C(=N\NC(=O)c1ccncc1)c1ccc(Cl)cc1` has an EC50 of over 20 µg/mL. Work on `COc1ccc(OC)c(/C(C)=N/NC(=O)c2ccncc2)c1` yielded an EC50 of over 100 µg/mL.

Tested on: Human immunodeficiency virus 2
Assay: Antiviral activity against Human immunodeficiency virus type 2 (ISOLATE ROD) infected MT4 cells assessed as inhibition of virus-induced cytopathic effect after 4 days by MTT assay
Type: functional, organism-based
Details: Human immunodeficiency virus 2, ISOLATE ROD, MT4, 96 h
`C/C(=N\NC(=O)c1ccncc1)c1ccc([N+](=O)[O-])cc1` gave an EC50 of over 77 µg/mL. For `C/C(=N\NC(=O)c1ccncc1)c1ccc(Cl)cc1`, the EC50 was over 88 µg/mL. Work on `COc1ccc(OC)c(/C(C)=N/NC(=O)c2ccncc2)c1` yielded an EC50 of over 88 µg/mL.

Tested on: Sindbis virus
Assay: Antiviral activity against Sindbis virus infected Vero cells assessed as inhibition of virus-induced cytopathicity
Type: functional, organism-based
Details: not given
With `C/C(=N\NC(=O)c1ccncc1)c1ccc([N+](=O)[O-])cc1` the EC50 was over 20 µg/mL. With `C/C(=N\NC(=O)c1ccncc1)c1ccc(Cl)cc1` the EC50 was over 20 µg/mL. Compound `COc1ccc(OC)c(/C(C)=N/NC(=O)c2ccncc2)c1` has an EC50 of over 100 µg/mL.

Tested on: HEL
Assay: Cytostatic against Homo sapiens (human) HEL cells assessed as alteration in cell morphology by microscopy
Type: ADME, cell-based
Details: not given
For `C/C(=N\NC(=O)c1ccncc1)c1ccc([N+](=O)[O-])cc1`, the Activity was “Toxic”. With `C/C(=N\NC(=O)c1ccncc1)c1ccc(Cl)cc1` the Activity was “Toxic”. In the case of `COc1ccc(OC)c(/C(C)=N/NC(=O)c2ccncc2)c1`, the Activity is reported as “Toxic”.

Tested on: not listed separately
Assay: Cytotoxicity against Chlorocebus aethiops (African green monkey) Vero cells assessed as alteration in cell morphology by microscopy
Type: cell-based
Details: chlorocebus sabaeus, read-out: MTC
For `C/C(=N\NC(=O)c1ccncc1)c1ccc([N+](=O)[O-])cc1`, the MCC was 100 µg/mL. Work on `C/C(=N\NC(=O)c1ccncc1)c1ccc(Cl)cc1` yielded an MCC of 100 µg/mL. With `COc1ccc(OC)c(/C(C)=N/NC(=O)c2ccncc2)c1` the MCC was over 100 µg/mL.

Tested on: Coxsackievirus B4
Assay: Antiviral activity against Human coxsackievirus B4 infected Vero cells assessed as inhibition of virus-induced cytopathicity
Type: functional, organism-based
Details: Enterovirus B
`C/C(=N\NC(=O)c1ccncc1)c1ccc([N+](=O)[O-])cc1` gave an EC50 of over 20 µg/mL. `C/C(=N\NC(=O)c1ccncc1)c1ccc(Cl)cc1` showed an EC50 of over 20 µg/mL. In the case of `COc1ccc(OC)c(/C(C)=N/NC(=O)c2ccncc2)c1`, the EC50 is reported as over 100 µg/mL.

Tested on: Mammalian orthoreovirus 1
Assay: Antiviral activity against Mammalian orthoreovirus 1 infected Vero cells assessed as inhibition of virus-induced cytopathicity by microscopy
Type: functional, organism-based
Details: Mammalian orthoreovirus 1, Vero
In the case of `C/C(=N\NC(=O)c1ccncc1)c1ccc([N+](=O)[O-])cc1`, the EC50 is reported as over 20 µg/mL. In the case of `C/C(=N\NC(=O)c1ccncc1)c1ccc(Cl)cc1`, the EC50 is reported as over 20 µg/mL. `COc1ccc(OC)c(/C(C)=N/NC(=O)c2ccncc2)c1` showed an EC50 of over 100 µg/mL.

Tested on: Candida albicans
Assay: Antimicrobial activity against Candida albicans after 48 hr by tube dilution method
Type: functional
Details: not given
In the case of `C/C(=N\NC(=O)c1ccncc1)c1ccc([N+](=O)[O-])cc1`, the “-logMIC” value is reported as 2.36. In the case of `C/C(=N\NC(=O)c1ccncc1)c1ccc(Cl)cc1`, the “-logMIC” value is reported as 2.34. For `COc1ccc(OC)c(/C(C)=N/NC(=O)c2ccncc2)c1`, the “-logMIC” value was 2.38.

Tested on: Staphylococcus aureus
Assay: Antimicrobial activity against Staphylococcus aureus after 24 hr by tube dilution method
Type: functional
Details: not given
With `C/C(=N\NC(=O)c1ccncc1)c1ccc([N+](=O)[O-])cc1` the “-logMIC” value was 2.06. With `C/C(=N\NC(=O)c1ccncc1)c1ccc(Cl)cc1` the “-logMIC” value was 2.34. In the case of `COc1ccc(OC)c(/C(C)=N/NC(=O)c2ccncc2)c1`, the “-logMIC” value is reported as 2.08.

Tested on: not listed separately
Assay: Cytotoxicity against Homo sapiens (human) MT4 cells after 4 days by MTT assay
Type: cell-based
Details: not given
`C/C(=N\NC(=O)c1ccncc1)c1ccc([N+](=O)[O-])cc1` gave a CC50 at 96 h of 77 µg/mL (≈ 271 µM). `C/C(=N\NC(=O)c1ccncc1)c1ccc(Cl)cc1` gave a CC50 at 96 h of 88 µg/mL (≈ 321 µM). In the case of `COc1ccc(OC)c(/C(C)=N/NC(=O)c2ccncc2)c1`, the CC50 at 96 h is reported as 88 µg/mL (≈ 294 µM).

Tested on: Aspergillus niger
Assay: Antimicrobial activity against Aspergillus niger after 7 days by tube dilution method
Type: functional
Details: not given
For `C/C(=N\NC(=O)c1ccncc1)c1ccc([N+](=O)[O-])cc1`, the “-logMIC” value was 2.36. With `C/C(=N\NC(=O)c1ccncc1)c1ccc(Cl)cc1` the “-logMIC” value was 2.34. With `COc1ccc(OC)c(/C(C)=N/NC(=O)c2ccncc2)c1` the “-logMIC” value was 2.38.

Tested on: Escherichia coli
Assay: Antimicrobial activity against Escherichia coli after 24 hr by tube dilution method
Type: functional
Details: not given
With `C/C(=N\NC(=O)c1ccncc1)c1ccc([N+](=O)[O-])cc1` the “-logMIC” value was 2.36. For `C/C(=N\NC(=O)c1ccncc1)c1ccc(Cl)cc1`, the “-logMIC” value was 2.34. For `COc1ccc(OC)c(/C(C)=N/NC(=O)c2ccncc2)c1`, the “-logMIC” value was 2.68.

Tested on: Human alphaherpesvirus 2
Assay: Antiviral activity against Human herpesvirus 2 strain G infected human HEL cells assessed as inhibition of virus-induced cytopathicity by microscopy
Type: functional, organism-based
Details: Human alphaherpesvirus 2, strain G
For `C/C(=N\NC(=O)c1ccncc1)c1ccc([N+](=O)[O-])cc1`, the EC50 was over 100 µg/mL. With `C/C(=N\NC(=O)c1ccncc1)c1ccc(Cl)cc1` the EC50 was over 20 µg/mL. Work on `COc1ccc(OC)c(/C(C)=N/NC(=O)c2ccncc2)c1` yielded an EC50 of over 100 µg/mL.

Tested on: Human immunodeficiency virus 1
Assay: Antiviral activity against Human immunodeficiency virus 1 IIIB infected MT4 cells assessed as inhibition of virus-induced cytopathic effect after 4 days by MTT assay
Type: functional, organism-based
Details: MT4, 96 h
For `C/C(=N\NC(=O)c1ccncc1)c1ccc([N+](=O)[O-])cc1`, the EC50 was over 77 µg/mL. With `C/C(=N\NC(=O)c1ccncc1)c1ccc(Cl)cc1` the EC50 was over 88 µg/mL. `COc1ccc(OC)c(/C(C)=N/NC(=O)c2ccncc2)c1` showed an EC50 of over 88 µg/mL.

Tested on: Coxsackievirus B4
Assay: Antiviral activity against Human coxsackievirus B4 infected human HeLa cells assessed as inhibition of virus-induced cytopathicity by microscopy
Type: functional, organism-based
Details: Enterovirus B
In the case of `C/C(=N\NC(=O)c1ccncc1)c1ccc([N+](=O)[O-])cc1`, the EC50 is reported as over 20 µg/mL. With `C/C(=N\NC(=O)c1ccncc1)c1ccc(Cl)cc1` the EC50 was over 20 µg/mL. For `COc1ccc(OC)c(/C(C)=N/NC(=O)c2ccncc2)c1`, the EC50 was over 100 µg/mL.

Tested on: Human respirovirus 3
Assay: Antiviral activity against Human parainfluenza virus 3 infected Vero cells assessed as inhibition of virus-induced cytopathicity by microscopy
Type: functional, organism-based
Details: Human respirovirus 3, Vero
Compound `C/C(=N\NC(=O)c1ccncc1)c1ccc([N+](=O)[O-])cc1` has an EC50 of over 20 µg/mL. Compound `C/C(=N\NC(=O)c1ccncc1)c1ccc(Cl)cc1` has an EC50 of over 20 µg/mL. Work on `COc1ccc(OC)c(/C(C)=N/NC(=O)c2ccncc2)c1` yielded an EC50 of over 100 µg/mL.

Tested on: not listed separately
Assay: Cytotoxicity against Homo sapiens (human) HeLa cells assessed as alteration in cell morphology by microscopy
Type: cell-based
Details: read-out: MTC
In the case of `C/C(=N\NC(=O)c1ccncc1)c1ccc([N+](=O)[O-])cc1`, the MCC is reported as 100 µg/mL. Compound `C/C(=N\NC(=O)c1ccncc1)c1ccc(Cl)cc1` has an MCC of 100 µg/mL. For `COc1ccc(OC)c(/C(C)=N/NC(=O)c2ccncc2)c1`, the MCC was over 100 µg/mL.

Tested on: Bacillus subtilis
Assay: Antimicrobial activity against Bacillus subtilis after 24 hr by tube dilution method
Type: functional
Details: not given
With `C/C(=N\NC(=O)c1ccncc1)c1ccc([N+](=O)[O-])cc1` the “-logMIC” value was 2.06. With `C/C(=N\NC(=O)c1ccncc1)c1ccc(Cl)cc1` the “-logMIC” value was 2.04. For `COc1ccc(OC)c(/C(C)=N/NC(=O)c2ccncc2)c1`, the “-logMIC” value was 2.08.

Tested on: not listed separately
Assay: Cytotoxicity against Homo sapiens (human) HEL cells assessed as alteration in cell morphology by microscopy
Type: cell-based
Details: not given
`C/C(=N\NC(=O)c1ccncc1)c1ccc([N+](=O)[O-])cc1` gave a CC50 of 54 µg/mL (≈ 190 µM). In the case of `C/C(=N\NC(=O)c1ccncc1)c1ccc(Cl)cc1`, the CC50 is reported as 20 µg/mL (≈ 73.1 µM). With `COc1ccc(OC)c(/C(C)=N/NC(=O)c2ccncc2)c1` the CC50 was 100 µg/mL (≈ 334 µM).

Same assay, conditions: read-out: MTC
With `C/C(=N\NC(=O)c1ccncc1)c1ccc([N+](=O)[O-])cc1` the MCC was over 100 µg/mL. `C/C(=N\NC(=O)c1ccncc1)c1ccc(Cl)cc1` showed an MCC of 100 µg/mL. For `COc1ccc(OC)c(/C(C)=N/NC(=O)c2ccncc2)c1`, the MCC was over 100 µg/mL.

Tested on: Punta Toro virus
Assay: Antiviral activity against Punta Toro virus infected Vero cells assessed as inhibition of virus-induced cytopathicity
Type: functional, organism-based
Details: not given
Compound `C/C(=N\NC(=O)c1ccncc1)c1ccc([N+](=O)[O-])cc1` has an EC50 of over 20 µg/mL. With `C/C(=N\NC(=O)c1ccncc1)c1ccc(Cl)cc1` the EC50 was over 20 µg/mL. For `COc1ccc(OC)c(/C(C)=N/NC(=O)c2ccncc2)c1`, the EC50 was over 100 µg/mL.
